# Results reported in ChEMBL document CHEMBL1201862, “PubChem BioAssay data set” (2004).
# Activity calls are given as the source filed them.
# Assays:
# [1] = molecular target: T1, Voltage-gated N-type calcium channel alpha-1B subunit/Amyloid beta A4 precursor protein-binding family A member 1 (Homo sapiens, UniProt Q00975+Q02410); type: protein assay
# [2] = molecular target: T2, Caspase-6 (Homo sapiens, UniProt P55212); assay: human caspase-6 inhibitors, dose response, biochemical, VEID-R110 fluorescence, cherry-pick (AID 720632)
# T2 sequence (P55212 whole entry): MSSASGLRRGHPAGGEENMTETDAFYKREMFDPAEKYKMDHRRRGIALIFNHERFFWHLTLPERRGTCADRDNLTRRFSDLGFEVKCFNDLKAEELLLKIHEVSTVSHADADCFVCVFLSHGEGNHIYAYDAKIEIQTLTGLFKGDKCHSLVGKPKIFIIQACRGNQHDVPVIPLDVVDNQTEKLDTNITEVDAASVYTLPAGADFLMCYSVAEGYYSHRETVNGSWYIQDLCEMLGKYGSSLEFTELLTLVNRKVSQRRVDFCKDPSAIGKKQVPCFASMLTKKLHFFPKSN
# [3] = molecular target: T1, Voltage-gated N-type calcium channel alpha-1B subunit/Amyloid beta A4 precursor protein-binding family A member 1; type: protein assay; remark: listed apart in the source
# [4] = molecular target: Large T antigen (Simian virus 40, UniProt P03070); type: functional, Betapolyomavirus macacae;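 note: Confirmatory-stage PubChem screen for compounds that inhibit SV40 T antigen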
# [5] = molecular target: T3, Cytochrome P450 3A4 (Homo sapiens, UniProt P08684)
# [6] = molecular target: Cytochrome P450 2C19 (Homo sapiens, UniProt P33261); assay: Cytochrome panel assay with activity outcomes. Panel member name: p450-cyp2c19 Compounds with AC50 equal or less than 10 uM are considered active; type: functional
# [7] = molecular target: Cytochrome P450 2D6 (Homo sapiens, UniProt P10635)
# [8] = molecular target: Cytochrome P450 2C9 (Homo sapiens, UniProt P11712)
# [9] = molecular target: Induced myeloid leukemia cell differentiation protein Mcl-1 (Homo sapiens, UniProt Q07820); type: functional
# [10] = test system: Vero; assay: cells; type: functional, Chlorocebus sabaeus; conditions: Chlorocebus sabaeus, Vero
# [11] = test system: Vero; assay: cells; type: functional, cell-based; conditions: Chlorocebus sabaeus
# [12] = molecular target: T3, Cytochrome P450 3A4; conditions: Potency
# [13] = molecular target: T4, Calpain-2 catalytic subunit (Sus scrofa, UniProt P43367); assay: pig calpain II inhibitor potency, dose response, biochemical, fluorogenic peptide substrate (AID 1420); type: functional
# T4 sequence (P43367 whole entry): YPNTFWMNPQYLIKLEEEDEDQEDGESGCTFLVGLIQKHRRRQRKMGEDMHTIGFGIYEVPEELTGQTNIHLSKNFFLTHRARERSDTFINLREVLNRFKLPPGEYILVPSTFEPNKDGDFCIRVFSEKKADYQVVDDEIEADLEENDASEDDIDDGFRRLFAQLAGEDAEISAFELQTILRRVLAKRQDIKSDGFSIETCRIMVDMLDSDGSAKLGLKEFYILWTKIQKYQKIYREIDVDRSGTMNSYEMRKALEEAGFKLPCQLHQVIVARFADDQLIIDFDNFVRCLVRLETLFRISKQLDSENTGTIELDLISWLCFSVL
# [14] = molecular target: T5, Short transient receptor potential channel 4 (Mus musculus, UniProt Q9QUQ5); assay: mouse TRPC4 channel inhibitors, dose response, cell-based, HEK293 TRPC4/mu-opioid, Fluo-4 calcium (AID 434942); type: functional;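 note: potency of inhibitors blocking the TRPC4 calcium response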
# T5 sequence (Q9QUQ5 whole entry): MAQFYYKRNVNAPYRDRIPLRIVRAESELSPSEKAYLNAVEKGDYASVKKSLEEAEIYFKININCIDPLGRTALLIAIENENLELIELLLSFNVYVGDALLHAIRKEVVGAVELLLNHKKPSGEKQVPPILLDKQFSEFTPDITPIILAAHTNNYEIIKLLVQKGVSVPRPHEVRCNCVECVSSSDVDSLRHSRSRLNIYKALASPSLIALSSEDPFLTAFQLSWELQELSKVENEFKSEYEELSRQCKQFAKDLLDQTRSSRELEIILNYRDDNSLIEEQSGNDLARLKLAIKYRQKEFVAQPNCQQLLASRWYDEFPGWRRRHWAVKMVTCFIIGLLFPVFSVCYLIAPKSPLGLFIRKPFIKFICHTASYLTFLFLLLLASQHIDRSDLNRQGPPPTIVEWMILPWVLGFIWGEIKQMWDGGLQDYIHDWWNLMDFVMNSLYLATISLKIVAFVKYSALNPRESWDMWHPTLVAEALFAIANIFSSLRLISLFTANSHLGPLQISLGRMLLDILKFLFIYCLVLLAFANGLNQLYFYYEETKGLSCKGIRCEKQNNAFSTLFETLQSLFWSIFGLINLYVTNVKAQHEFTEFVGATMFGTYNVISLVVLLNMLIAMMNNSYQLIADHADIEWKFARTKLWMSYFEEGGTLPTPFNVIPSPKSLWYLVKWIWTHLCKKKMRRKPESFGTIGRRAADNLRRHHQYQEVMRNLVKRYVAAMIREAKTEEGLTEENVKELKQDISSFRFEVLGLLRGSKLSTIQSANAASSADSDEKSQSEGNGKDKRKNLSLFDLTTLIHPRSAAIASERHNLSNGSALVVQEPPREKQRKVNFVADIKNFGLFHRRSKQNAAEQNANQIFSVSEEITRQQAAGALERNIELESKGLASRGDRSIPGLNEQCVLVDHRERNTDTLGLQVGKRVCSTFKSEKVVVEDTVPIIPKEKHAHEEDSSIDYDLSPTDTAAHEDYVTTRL
# [15] = cells; type: functional, cell-based
# [16] = cells; type: functional, cell-based; remark: listed apart in the source
# [17] = molecular target: T3, Cytochrome P450 3A4; remark: listed apart in the source
# Chain of Cytochrome P450 2D6 (P10635 whole entry): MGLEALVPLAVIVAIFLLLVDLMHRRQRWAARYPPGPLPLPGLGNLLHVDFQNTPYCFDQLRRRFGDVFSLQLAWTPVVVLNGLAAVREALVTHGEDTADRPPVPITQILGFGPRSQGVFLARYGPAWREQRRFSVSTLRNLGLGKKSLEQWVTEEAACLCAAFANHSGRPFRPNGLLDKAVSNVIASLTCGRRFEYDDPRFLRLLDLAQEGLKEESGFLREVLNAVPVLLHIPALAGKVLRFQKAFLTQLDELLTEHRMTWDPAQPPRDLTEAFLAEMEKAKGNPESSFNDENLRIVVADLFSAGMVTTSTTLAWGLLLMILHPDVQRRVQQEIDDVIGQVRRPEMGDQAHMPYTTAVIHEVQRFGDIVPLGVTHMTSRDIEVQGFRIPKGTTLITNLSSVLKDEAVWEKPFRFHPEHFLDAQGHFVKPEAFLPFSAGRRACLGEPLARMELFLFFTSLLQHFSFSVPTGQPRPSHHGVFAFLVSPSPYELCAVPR
# Chain of Cytochrome P450 2C19 (P33261 whole entry): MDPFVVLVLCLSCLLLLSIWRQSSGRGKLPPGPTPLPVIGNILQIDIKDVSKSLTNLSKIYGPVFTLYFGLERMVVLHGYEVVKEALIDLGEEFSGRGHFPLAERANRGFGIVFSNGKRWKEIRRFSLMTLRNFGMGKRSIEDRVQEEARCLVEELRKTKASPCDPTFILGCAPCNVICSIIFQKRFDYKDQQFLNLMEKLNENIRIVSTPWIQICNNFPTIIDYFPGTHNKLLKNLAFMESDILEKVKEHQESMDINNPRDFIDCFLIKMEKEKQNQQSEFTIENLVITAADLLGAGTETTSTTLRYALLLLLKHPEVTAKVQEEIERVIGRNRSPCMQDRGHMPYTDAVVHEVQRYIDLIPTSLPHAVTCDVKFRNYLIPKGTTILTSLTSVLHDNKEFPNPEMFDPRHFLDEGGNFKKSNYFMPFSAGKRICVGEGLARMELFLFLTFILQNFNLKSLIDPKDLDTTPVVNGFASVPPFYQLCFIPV
# T1 sequence (Q00975 whole entry): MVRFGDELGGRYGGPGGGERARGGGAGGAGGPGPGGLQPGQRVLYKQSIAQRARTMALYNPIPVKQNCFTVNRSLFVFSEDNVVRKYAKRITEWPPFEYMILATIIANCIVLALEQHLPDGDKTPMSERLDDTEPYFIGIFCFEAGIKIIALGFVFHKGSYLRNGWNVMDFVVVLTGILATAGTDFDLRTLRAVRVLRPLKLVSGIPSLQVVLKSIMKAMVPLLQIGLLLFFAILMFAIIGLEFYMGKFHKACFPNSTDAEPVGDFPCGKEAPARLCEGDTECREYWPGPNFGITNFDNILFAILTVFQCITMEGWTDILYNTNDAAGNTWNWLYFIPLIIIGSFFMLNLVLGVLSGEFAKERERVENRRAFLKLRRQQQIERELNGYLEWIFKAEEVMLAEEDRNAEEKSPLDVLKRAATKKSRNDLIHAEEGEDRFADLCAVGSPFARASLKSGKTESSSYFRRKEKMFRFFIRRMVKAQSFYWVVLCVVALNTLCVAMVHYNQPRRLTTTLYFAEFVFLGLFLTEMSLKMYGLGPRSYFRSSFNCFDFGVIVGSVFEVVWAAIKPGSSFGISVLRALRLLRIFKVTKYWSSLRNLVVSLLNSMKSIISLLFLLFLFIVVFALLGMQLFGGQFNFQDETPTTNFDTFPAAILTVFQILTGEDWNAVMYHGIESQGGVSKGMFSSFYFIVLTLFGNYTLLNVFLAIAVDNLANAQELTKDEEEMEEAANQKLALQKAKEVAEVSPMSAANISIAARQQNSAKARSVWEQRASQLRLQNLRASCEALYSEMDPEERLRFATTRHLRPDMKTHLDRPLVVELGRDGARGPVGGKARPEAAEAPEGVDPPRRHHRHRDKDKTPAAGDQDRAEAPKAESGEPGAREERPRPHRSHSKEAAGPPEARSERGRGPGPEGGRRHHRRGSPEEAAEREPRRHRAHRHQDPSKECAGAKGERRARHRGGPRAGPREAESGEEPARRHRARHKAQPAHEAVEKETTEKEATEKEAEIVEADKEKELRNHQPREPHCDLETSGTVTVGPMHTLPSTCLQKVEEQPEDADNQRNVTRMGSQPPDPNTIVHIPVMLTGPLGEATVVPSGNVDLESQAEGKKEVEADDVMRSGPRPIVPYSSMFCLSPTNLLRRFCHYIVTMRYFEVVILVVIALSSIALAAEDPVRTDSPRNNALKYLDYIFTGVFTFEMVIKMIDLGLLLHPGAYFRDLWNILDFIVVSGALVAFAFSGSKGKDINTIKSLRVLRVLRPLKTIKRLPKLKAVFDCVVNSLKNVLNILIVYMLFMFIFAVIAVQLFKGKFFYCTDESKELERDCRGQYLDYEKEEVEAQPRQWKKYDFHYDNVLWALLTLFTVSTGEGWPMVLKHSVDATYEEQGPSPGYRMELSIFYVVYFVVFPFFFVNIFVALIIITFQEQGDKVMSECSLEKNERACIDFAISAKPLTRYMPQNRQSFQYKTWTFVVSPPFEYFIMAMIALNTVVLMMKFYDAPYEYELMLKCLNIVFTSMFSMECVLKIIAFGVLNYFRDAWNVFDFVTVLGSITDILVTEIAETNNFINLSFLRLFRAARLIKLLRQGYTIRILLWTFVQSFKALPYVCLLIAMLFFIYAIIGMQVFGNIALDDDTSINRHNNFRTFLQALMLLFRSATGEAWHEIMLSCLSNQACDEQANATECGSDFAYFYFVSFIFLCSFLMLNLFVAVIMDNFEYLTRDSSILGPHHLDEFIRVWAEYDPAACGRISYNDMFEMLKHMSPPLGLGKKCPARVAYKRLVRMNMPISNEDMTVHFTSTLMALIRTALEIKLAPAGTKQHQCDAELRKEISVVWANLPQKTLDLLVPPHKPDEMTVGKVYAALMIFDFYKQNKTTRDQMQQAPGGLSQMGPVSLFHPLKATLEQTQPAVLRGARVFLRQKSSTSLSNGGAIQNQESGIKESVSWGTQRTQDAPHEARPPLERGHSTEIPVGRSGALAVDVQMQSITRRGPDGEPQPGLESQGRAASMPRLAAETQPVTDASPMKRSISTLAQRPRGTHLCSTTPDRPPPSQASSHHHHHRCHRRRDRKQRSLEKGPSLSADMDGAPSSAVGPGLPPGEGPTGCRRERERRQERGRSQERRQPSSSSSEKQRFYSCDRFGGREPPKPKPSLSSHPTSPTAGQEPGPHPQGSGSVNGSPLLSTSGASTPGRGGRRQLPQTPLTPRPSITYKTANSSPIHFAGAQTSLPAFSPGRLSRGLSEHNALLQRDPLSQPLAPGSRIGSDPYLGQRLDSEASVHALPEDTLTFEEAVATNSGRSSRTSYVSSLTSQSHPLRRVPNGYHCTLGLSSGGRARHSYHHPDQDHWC
# T1 sequence (Q02410 whole entry): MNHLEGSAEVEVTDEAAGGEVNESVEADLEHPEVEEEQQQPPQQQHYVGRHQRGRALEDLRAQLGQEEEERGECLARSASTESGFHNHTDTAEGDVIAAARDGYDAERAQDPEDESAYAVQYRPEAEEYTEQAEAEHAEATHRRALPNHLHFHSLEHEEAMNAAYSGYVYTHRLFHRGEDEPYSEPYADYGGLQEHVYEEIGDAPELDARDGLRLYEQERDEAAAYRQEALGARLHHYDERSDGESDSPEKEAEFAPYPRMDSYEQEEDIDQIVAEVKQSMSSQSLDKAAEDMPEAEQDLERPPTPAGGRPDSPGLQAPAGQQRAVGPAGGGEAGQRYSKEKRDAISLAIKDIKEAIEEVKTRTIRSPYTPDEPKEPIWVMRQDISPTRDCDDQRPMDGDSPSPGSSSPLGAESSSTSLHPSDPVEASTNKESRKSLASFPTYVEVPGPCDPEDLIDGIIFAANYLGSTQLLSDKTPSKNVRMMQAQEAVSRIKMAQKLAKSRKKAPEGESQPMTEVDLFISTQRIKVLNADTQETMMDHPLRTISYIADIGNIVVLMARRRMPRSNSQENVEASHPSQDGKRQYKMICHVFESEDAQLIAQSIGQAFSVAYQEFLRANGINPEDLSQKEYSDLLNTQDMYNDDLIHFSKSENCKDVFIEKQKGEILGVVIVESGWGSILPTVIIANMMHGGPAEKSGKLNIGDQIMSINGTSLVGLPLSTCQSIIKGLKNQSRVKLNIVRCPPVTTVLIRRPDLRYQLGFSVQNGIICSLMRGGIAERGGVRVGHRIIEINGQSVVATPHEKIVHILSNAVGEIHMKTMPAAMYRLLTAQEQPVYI
# T3 sequence (P08684 whole entry): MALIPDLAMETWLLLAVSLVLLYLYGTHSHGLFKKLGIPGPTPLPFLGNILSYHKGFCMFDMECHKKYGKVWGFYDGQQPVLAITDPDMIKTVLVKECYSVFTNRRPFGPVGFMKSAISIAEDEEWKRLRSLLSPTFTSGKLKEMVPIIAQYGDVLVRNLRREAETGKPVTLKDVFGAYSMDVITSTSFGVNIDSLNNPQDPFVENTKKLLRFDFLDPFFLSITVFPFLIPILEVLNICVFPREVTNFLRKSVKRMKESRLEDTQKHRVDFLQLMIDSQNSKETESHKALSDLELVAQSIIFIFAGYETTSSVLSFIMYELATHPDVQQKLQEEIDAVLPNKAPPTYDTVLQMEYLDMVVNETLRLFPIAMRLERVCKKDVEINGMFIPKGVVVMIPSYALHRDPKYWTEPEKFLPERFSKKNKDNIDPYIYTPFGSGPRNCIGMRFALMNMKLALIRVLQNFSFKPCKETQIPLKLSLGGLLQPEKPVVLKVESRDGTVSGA
# Chain of Induced myeloid leukemia cell differentiation protein Mcl-1 (Q07820 whole entry): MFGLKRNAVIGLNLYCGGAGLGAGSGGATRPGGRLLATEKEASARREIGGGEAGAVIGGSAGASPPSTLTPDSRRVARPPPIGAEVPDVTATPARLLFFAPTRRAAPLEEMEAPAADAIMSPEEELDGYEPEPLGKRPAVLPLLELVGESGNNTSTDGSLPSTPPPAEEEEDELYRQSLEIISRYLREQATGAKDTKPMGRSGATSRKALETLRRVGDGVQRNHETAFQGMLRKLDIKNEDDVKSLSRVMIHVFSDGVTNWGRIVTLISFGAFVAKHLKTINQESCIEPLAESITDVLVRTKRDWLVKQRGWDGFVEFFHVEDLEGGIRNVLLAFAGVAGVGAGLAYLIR
compound,measurement,setting,value
COc1cccc(N2C(=O)NC(=O)/C(=C\c3ccc([N+](=O)[O-])s3)C2=O)c1,IC50,[1],6.66 µM (active)
same,AC50,[2],43 µM (active)
same,IC50,[3],13.5 µM (active)
same,IC50,[4],32.4 µM (active)
O=C(c1csnn1)N1CCC2(CC1)CN(C(c1ccccc1)c1ccccc1)C2,AC50,[5],inconclusive
same,AC50,[6]; read-out: AC50,0.00631 µM (inconclusive)
same,AC50,[7],12.6 µM (inconclusive)
same,AC50,[8],15.8 µM (inconclusive)
Oc1c(Br)cc(/C=N/c2ccc3[nH]c(-c4ccccc4)nc3c2)c(O)c1Br,IC50,[9],1.49 µM (active)
O=C(Cc1coc2ccc3ccccc3c12)Nc1nnc(C2CC2)s1,CC50,[10],> 25 µM (active)
same,IC50,[11],21.7 µM (active)
CCCCNC(=O)C(c1ccc(OCC(=O)OC)c(C(=O)OC)c1)N(CCOC)C(=O)CCCCCN1C(=O)NC(c2ccc(-c3ccccc3)cc2)C(C(=O)OCc2ccccc2)=C1C (configuration not stated),AC50,[12],3.16 µM (inconclusive)
Cc1ccc2c(c1)nnn2C1CCN(S(=O)(=O)c2ccc(C(=O)N3CC(C)CC(C)C3)cc2)CC1 (configuration not stated),IC50,[13],3.74 µM (not active)
COc1c(CC(=O)c2cc3c(cc2O)OC(C)(C)C(O)C3)ccc2c1C=CC(C)(C)O2 (configuration not stated) [DIHYDROMUNDULETONE],AC50,[12],25.1 µM (inconclusive)
Cc1cc(N2CCCCCC2)nc2ccccc12,EC50,[14],1.33 µM (active)
COc1ccc(C(=O)N2CCC3(CC2)CCN(C(c2ccccc2)c2ccccc2)CC3)cc1,AC50,[5],inconclusive
same,AC50,[7],12.6 µM (inconclusive)
same,AC50,[8],39.8 µM (inconclusive)
O=C(c1ccc(-c2nnc(-c3ccccc3)o2)cc1)N1CCCCCC1,EC50,[15],> 350 µM (not active)
same,IC50,[13],11 µM (not active)
same,EC50,[16],5.78 µM (active)
Cn1cc(CNCC2CCCO2)c(-c2ccc(Oc3ccccc3)cc2)n1 (configuration not stated),EC50,[14],3.35 µM (active)
O=C(CCCCn1c(=O)c2ccccc2n(CC(=O)NC2CCCC2)c1=O)NCc1ccco1,IC50,[13],28.8 µM (not active)
N#Cc1c(N2CCCCC2)nc(N)c2c(N)nc3c(c12)CC(c1ccccc1)O3 (configuration not stated),AC50,[17],1 µM (inconclusive)
same,AC50,[7],25.1 µM (inconclusive)
same,EC50,[14],2.99 µM (active)
Cc1cccn2c(=O)c(/C=N/O)c(Nc3ccccc3F)nc12,IC50,[1],> 50 µM (inactive)
same,IC50,[3],11.4 µM (active)
Cc1cccnc1NC(=O)C12CCC(C)(C(=O)O1)C2(C)C (configuration not stated),AC50,[5],inconclusive
same,AC50,[6],inconclusive
O=C(O)/C=C/C(=O)Nc1ccc(F)cc1F,AC50,[5],inconclusive
same,AC50,[6]; read-out: AC50,39.8 µM (inconclusive)
